Experimental data from patent publication US7402575B2, “Methods of treating inflammation” (priority 2003, dated 2008).
“Also recorded” adds a separate entry of the source.

What was measured:
Format in all cases: cell-based, dog
[1] = system: right ventricular trabecular preparation; assay: Effect of the substance itself on isometric tension in right ventricular trabecular preparation
Protocol: Aliquots of the 10-30 KD plasma fraction (0.05 to 1 ml) were then added to a right ventricular (RV) trabecular preparation to test for the presence of FCS activity. The RV preparation has previously been described (6,7). Briefly, mongrel dogs (3 to 10 kg) were anesthetized with pentobarbital, and their hearts were removed. Three to four thin trabeculae (<1 mm diameter) were obtained from the right ventricle and were suspended in a vertical constant temperature bath (5 ml) that contained Krebs Henseleit (KH) solution. The muscle was stimulated electrically at 0.5 Hz. Aliquots of plasma fractions (from 0.05 to 1 ml) were added to respective organ baths at 5 minute intervals. The changes observed in the pre and septic plasma fractions were expressed relative to tensions found at baseline (i.e. prior to the addition of the sample). An increase in the depressant activity in the septic plasma fraction relative to that found in the presepsis sample was indicative of an increase in FCS.
The effect of purified Lzm-S on myocardial depression was then studied in the ventricular trabecular preparation. In initial experiments, the objective was to compare Lzm-S prepared from septic and nonseptic spleens to see if there was any difference between the two preparations. Although no differences were apparent by SDS-PAGE gel, different isoforms of the enzyme could have developed in sepsis thereby increasing its potential to cause myocardial depression. Aliquots of the septic and nonseptic preparations were added (at 5 minute intervals) to respective organ baths, and the changes in isometric tension were then compared between Lzm-S obtained from spleens of septic and nonseptic animals.
The right ventricular (RV) preparation used in this study has also been described (49,6). Briefly, mongrel dogs (3 to 10 kg) were anesthetized with pentobarbital. The hearts were removed, flushed with 50 ml of Krebs-Henseleit solution (KH), and placed in ice-cold KH bubbled with a mixture of 95% O2 and 5% CO2. […]
After baseline tension was determined, either the lectin or placebo was placed into respective organ baths. […]

lysozyme c (Lzm-S) [2] = target: T1, lysozyme c (Lzm-S) (Canis lupus familiaris, UniProt P81709); assay: Inhibition of Lzm-S's myocardial depressant activity (isometric tension) in right ventricular trabecular preparation; details: for Attenuation of the reduction in isometric tension, inhibitor added after Lzm-S: Lzm-S 10^−7M added before the inhibitor; for Isometric tension following pre-treatment with sugar: Lzm-S 10^−7M, sugar 10^−3M added before Lzm-S; for Inhibition of Lzm-S's depressant effect on isometric tension: inhibitor 10^−3M added before Lzm-S, paced 0.5 Hz
T1 construct: Lzm-S was purified in a manner described by Grobler et al (14); from tissue
T1 sequence (P81709 1-130): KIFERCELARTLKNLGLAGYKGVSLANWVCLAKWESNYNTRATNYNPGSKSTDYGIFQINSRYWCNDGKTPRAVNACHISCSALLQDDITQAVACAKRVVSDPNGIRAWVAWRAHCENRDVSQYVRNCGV
Protocol: In subsequent experiments, the objective was to determine whether pretreatment of Lzm-S with the proteolytic enzyme proteinase-K reduced the extent to which myocardial depression developed in the in vitro preparation (7). Proteinase-K (attached to beaded agarose; Sigma Chemical, St Louis, Mo.) was added to the pure Lzm-S preparation. The effects of proteinase-K treated and nontreated Lzm-S on isometric tension were compared between the samples. Since proteinase-K is a non-specific proteolytic enzyme, a specific competitive inhibitor of lysozyme, TAC (chitotriose) was subsequently examined to determine whether it prevented the depression in isometric tension observed in the in vitro preparation (16,17).
In one set of experiments, it was determined whether TAC prevented the reduction in tension observed with Lzm-S. A dose of 10^−3M TAC (based on preliminary experiments) was added to the organ bath before the addition of Lzm-S. Lzm-S was then added to bring the final concentrations to 10^−10M, 10^−9M, 10^−8M, and 10^−7M in sequential steps. In a related set of experiments, the effect of TAC was studied under a similar protocol in which the ventricular trabecular preparation was paced at 1 Hz instead of 0.5 Hz. The objective was to determine whether the higher frequency altered the inhibitory response of TAC. In a third set of experiments, the sequence of adding TAC and Lzm-S was reversed. Lzm-S (10^−7M) was initially added to the preparation, after which TAC at bath concentrations of 10^−6M, 10^−5M, 10^−4M, 10^−3M were sequentially added. The objective was to determine whether TAC could attenuate the effect of Lzm-S on reducing the isometric response after an initial depression in isometric tension had already been attained.
The right ventricular (RV) preparation used in this study has also been described (49,6). Briefly, mongrel dogs (3 to 10 kg) were anesthetized with pentobarbital. The hearts were removed, flushed with 50 ml of Krebs-Henseleit solution (KH), and placed in ice-cold KH bubbled with a mixture of 95% O2 and 5% CO2. Three to four thin trabeculae (<1 mm diameter) were obtained from the right ventricle and were tied at each end with 6-O silk thread. Each thin muscle was suspended in a vertical constant temperature bath (5 ml) that contained KH (in mM: NaCl, 118; KCl, 4.7; CaCl2 2.5; MgSO4, 1.2; KH2PO4, 1.4; NaHCO3, 25; and dextrose, 11). The muscle was stimulated electrically via punctate platinum bipolar electrodes with rectangular pulses (1 ms duration) at an intensity of 50% above threshold delivered at intervals of 2,000 ms. The trabeculae were stretched to optimal length.
Inhibitory activities of N-acetylglucosamine (NAG), N,N′ diacetylglucosamine (NAG-NAG: N,N′ diacetylchitobiose), and N,N′,N″,N′″ tetraacetylglucosamine (NAG-NAG-NAG-NAG: N,N′,N″,N′″-tetraacetylchitotetraose) were examined (Sigma Corp Canada, Oakville Ontario). These are structurally similar to TAC, but have a different number of NAG units (17). Two somewhat related sugars were also examined to see if there was potential for blocking the activity of lysozyme. These included D-cellotriose and N-aceytllactosamine. D-cellotriose includes three glucose residues linked by beta (1-4) glycosidic linkages, while N acetyllactosamine includes N-acetylglucosamine and galactose residues linked by beta (1-4) glycosidic linkages (12).
After baseline tension was determined, either the sugar or placebo was placed into respective organ baths. The concentration of the sugar used was 10^−3M based on the inventors' previous experiments with TAC 49), while the concentrations of lysozyme were 10^−9, 10^−8, and 10^−7M, respectively. Measurements were obtained at 5 minute intervals. The changes in isometric tension measured from baseline were compared between the treated and placebo baths. […]

lysozyme c (Lzm-S) [3] = target: T1, lysozyme c (Lzm-S); assay: as above; details: Lzm-S 10^−7M first, then inhibitor 10^−3M at 15 min intervals (Example 4)

SMILES | Effect of the substance by itself on isometric tension [1] | Attenuation of the reduction in isometric tension, inhibitor added after Lzm-S (lysozyme c (Lzm-S) [2]) | Isometric tension following pre-treatment with sugar (lysozyme c (Lzm-S) [2]) | Attenuation of Lzm-S's depressant activity at higher pacing rate (lysozyme c (Lzm-S) [2]; TAC 10^−3M before Lzm-S, paced 1 Hz) | Inhibition of Lzm-S's depressant effect on isometric tension (lysozyme c (Lzm-S) [2]) | Isometric tension, inhibitor added after myocardial depression had already been produced by lysozyme (lysozyme c (Lzm-S) [3]) | Inhibition of Lzm-S's depressant effect on isometric tension (lysozyme c (Lzm-S) [2]; listed as N,N′ diacetylchitobiose) | Inhibition of Lzm-S's depressant effect on isometric tension (lysozyme c (Lzm-S) [2]; listed as diacetylchitobiose)
CC(=O)N[C@H]1[C@H](O[C@H]2[C@H](O)[C@@H](NC(C)=O)C(O)O[C@@H]2CO)O[C@H](CO)[C@@H](O[C@@H]2O[C@H](CO)[C@@H](O)[C@H](O)[C@H]2NC(C)=O)[C@@H]1O (stereo partly drawn) [TAC, N,N′,N″ triacetylglucosamine] | no effect on isometric tension; also recorded: modest depressant effect | treatment attenuated the reduction in isometric tension; also recorded: attenuated the decrease in isometric tension as compared to when no intervention was instituted | approximately 77 % of baseline | still observed at this higher heart rate | significantly less than that found in the nontreated group | 55 % of baseline | – | –
CC(=O)N[C@H]1[C@H](O[C@H]2[C@H](O)[C@@H](NC(C)=O)C(O)O[C@@H]2CO)O[C@H](CO)[C@@H](O)[C@@H]1O (stereo partly drawn) [chitobiose, N,N′ diacetylglucosamine] | modest depressant effect | attenuated the decrease in isometric tension as compared to when no intervention was instituted | approximately 90 % of baseline | – | – | 65 % of baseline | completely blocked lysozyme's depressant activity | inhibited the depressant effect of Lzm-S
